# According to patent US10993947B2, “Treatment of skin lesions” (PIQUR THERAPEUTICS AG, priority 2016, dated 2021):
# Legend:
# [1] = biological target: T1, N-terminally GST-tagged mTOR (Homo sapiens, UniProt P42345); assay: In vitro mTOR binding assay (LanthaScreen TR-FRET); conditions: LanthaScreen kinase binding, Tracer 314; read-out: mTOR IC50 (binding)
# T1 construct: truncated version: amino acids 1360-2549; purchased Life Technologies PR8683B
# [2] = tested on: pPKB S473 in A2058 cells; assay: In-cell Western blot, pPKB S473; assay type: cell-based; conditions: Homo sapiens, 1 hour treatment
# [3] = tested on: pS6 S235/S236 in A2058 cells; assay: In-cell Western blot, pS6 S235/S236; assay type: cell-based; conditions: Homo sapiens, 1 hour treatment
# T1 sequence (P42345 1360-2549): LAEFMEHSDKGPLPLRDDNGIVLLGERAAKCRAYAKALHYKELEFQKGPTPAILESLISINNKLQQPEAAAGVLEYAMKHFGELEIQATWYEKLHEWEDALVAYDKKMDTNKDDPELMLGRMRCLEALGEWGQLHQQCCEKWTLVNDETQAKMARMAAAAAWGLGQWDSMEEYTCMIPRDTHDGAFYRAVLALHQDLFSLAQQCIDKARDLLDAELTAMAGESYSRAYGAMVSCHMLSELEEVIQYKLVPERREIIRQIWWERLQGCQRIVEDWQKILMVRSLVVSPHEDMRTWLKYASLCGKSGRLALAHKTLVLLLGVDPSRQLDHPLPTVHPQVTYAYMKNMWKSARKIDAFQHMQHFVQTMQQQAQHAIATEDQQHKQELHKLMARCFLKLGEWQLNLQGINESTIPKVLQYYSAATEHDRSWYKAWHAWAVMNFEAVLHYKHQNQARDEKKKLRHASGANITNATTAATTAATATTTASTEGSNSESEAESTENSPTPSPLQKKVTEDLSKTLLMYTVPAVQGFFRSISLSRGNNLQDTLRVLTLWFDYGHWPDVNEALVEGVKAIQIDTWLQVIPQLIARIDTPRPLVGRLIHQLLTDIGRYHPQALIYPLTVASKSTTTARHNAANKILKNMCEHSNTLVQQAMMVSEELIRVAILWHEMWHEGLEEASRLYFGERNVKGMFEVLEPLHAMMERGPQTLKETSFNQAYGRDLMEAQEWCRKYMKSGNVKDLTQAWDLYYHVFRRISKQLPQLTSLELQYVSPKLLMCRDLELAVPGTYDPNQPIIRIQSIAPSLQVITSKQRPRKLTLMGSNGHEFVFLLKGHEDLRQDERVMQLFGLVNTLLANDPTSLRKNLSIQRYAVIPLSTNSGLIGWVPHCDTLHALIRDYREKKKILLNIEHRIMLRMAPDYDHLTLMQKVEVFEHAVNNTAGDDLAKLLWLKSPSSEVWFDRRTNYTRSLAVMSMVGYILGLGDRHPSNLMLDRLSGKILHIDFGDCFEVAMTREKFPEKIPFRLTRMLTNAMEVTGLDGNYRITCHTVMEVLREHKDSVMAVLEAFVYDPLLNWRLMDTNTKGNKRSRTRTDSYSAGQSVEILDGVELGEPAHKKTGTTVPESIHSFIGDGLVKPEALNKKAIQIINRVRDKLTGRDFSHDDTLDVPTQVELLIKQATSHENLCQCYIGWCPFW
"IC50 ([2]; A2058, 1 h)","IC50 ([3]; A2058, 1 h)",Compound,IC50 [1],IC50 [2],IC50 [3]
208 nM,515 nM,Nc1cc(C(F)F)c(-c2nc(N3CCNCC3)nc(N3CCOCC3)n2)cn1 [Compound 12],543 nM,,
43 nM,150 nM,Nc1ncc(-c2nc(N3CCNCC3)nc(N3CCOCC3)n2)c(C(F)F)n1 [Compound 13],1020 nM,,
,,"Nc1cc(C(F)F)c(-c2cc(N3CCOCC3)nc(N3CCOCC3)n2)cn1 [Compound 16, 4-(difluoromethyl)-5-(2,6-dimorpholinopyrimidin-4-yl)pyridin-2-amine]",30 nM,207 nM,184 nM
,,"Nc1cc(C(F)F)c(-c2nc(N3CCOCC3)cc(N3CCOCC3)n2)cn1 [Compound 18, 4-(difluoromethyl)-5-(4,6-dimorpholinopyrimidin-2-yl)pyridin-2-amine]",31 nM,243 nM,256 nM
146 nM,250 nM,Nc1cc(C(F)F)c(-c2nc(N3CCOCC3)nc(N3CCSCC3)n2)cn1 [Compound 20],13 nM,,
57 nM,216 nM,Nc1ncc(-c2nc(N3CCOCC3)nc(N3CCSCC3)n2)c(C(F)F)n1 [Compound 21],54 nM,,
303 nM,294 nM,"C[C@H]1COCCN1c1cc(-c2cnc(N)cc2C(F)F)nc(N2CCOC[C@@H]2C)n1 [Compound 25, 5-(2,6-bis((S)-3-methylmorpholino)pyrimidin-4-yl)-4-(difluoromethyl)pyridin-2-amine]",32 nM,,
87 nM,191 nM,"C[C@H]1COCCN1c1cc(-c2cnc(N)nc2C(F)F)nc(N2CCOC[C@@H]2C)n1 [Compound 26, 4′-(difluoromethyl)-2,6-bis((S)-3-methylmorpholino)-[4,5′-bipyrimidin]-2′-amine]",47 nM,,
,,"C[C@H]1COCCN1c1cc(-c2cnc(N)cc2C(F)F)nc(N2CCOCC2)n1 [Compound 27, (S)-4-(difluoromethyl)-5-(6-(3-methylmorpholino)-2-morpholinopyrimidin-4-yl)pyridin-2-amine]",65 nM,614 nM,766 nM
,,"C[C@H]1COCCN1c1nc(-c2cnc(N)cc2C(F)F)cc(N2CCOCC2)n1 [Compound 31, (S)-4-(difluoromethyl)-5-(2-(3-methylmorpholino)-6-morpholinopyrimidin-4-yl)pyridin-2-amine]",15 nM,146 nM,124 nM
,,"C[C@H]1COCCN1c1nc(-c2cnc(N)nc2C(F)F)cc(N2CCOCC2)n1 [Compound 32, (S)-4′-(difluoromethyl)-2-(3-methylmorpholino)-6-morpholino-[4,5′-bipyrimidin]-2′-amine]",293 nM,100 nM,387 nM
106 nM,47 nM,"CC1(C)COCCN1c1nc(-c2cnc(N)cc2C(F)F)nc(N2CCOCC2(C)C)n1 [Compound 39, 5-[4,6-bis(3,3-dimethylmorpholin-4-yl)-1,3,5-triazin-2-yl]-4-(difluoromethyl)pyridin-2-amine]",1 nM,,

Compound,"IC50 ([2]; A2058, 1 h)","IC50 ([3]; A2058, 1 h)",IC50 [1],IC50 [2],IC50 [3]
"Nc1cc(C(F)F)c(-c2cc(N3C4CCC3COC4)nc(N3C4CCC3COC4)n2)cn1 [Compound 22, 5-(6-(3-oxa-8-azabicyclo[3.2.1]octan-8-yl)-2-(3-oxa-8-azabicyclo[3.2.1]octan-8-yl)pyrimidin-4-yl)-4-(difluoromethyl)pyridin-2-amine]",57 nM,216 nM,18 nM,,
"Nc1cc(C(F)F)c(-c2cc(N3CCOCC3)nc(N3C4CCC3COC4)n2)cn1 [Compound 23, 5-(2-(3-oxa-8-azabicyclo[3.2.1]octan-8-yl)-6-morpholinopyrimidin-4-yl)-4-(difluoromethyl)pyridin-2-amine]",285 nM,230 nM,40 nM,,
"Nc1ncc(-c2cc(N3CCOCC3)nc(N3C4CCC3COC4)n2)c(C(F)F)n1 [Compound 24, 2-(3-oxa-8-azabicyclo[3.2.1]octan-8-yl)-4′-(difluoromethyl)-6-morpholino-[4,5′-bipyrimidin]-2′-amine]",84 nM,167 nM,35 nM,,
